The record followed here is patent US20020137929A1, “1 - (3-heterocyclylphenyl) isothiourea, -isourea, -guanidine and -amidine herbicidal agents” (Intellectual Property Department, BASF Aktiengesellschaft, priority 1998, published 2002).

Series [1] relates to CHEAL (Lambsquarters, Common). Briefly: Preemergence herbicidal evaluation. To be noted: rated 4-5 weeks after treatment. Format: in vivo, Chenopodium album. The essentials:
(§1)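 Steps: mix seeds into potting soil; plant atop ~1 inch soil; spray compound in aqueous acetone (~0.0156-0.500 kg/ha equivalent); maintain in greenhouse with watering; rate visually 0-9 versus control at 4-5 weeks.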

The subject of series [2] is ECHORC (Watergrass (Calif.)). The series can be described thus: Preemergence weed control under flooded paddy conditions. Format: in vivo, Echinochloa oryzoides. As to conditions: rated 3-4 weeks after treatment. The essentials:
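First, seeds or propagules go into the top 0.5 cm of silt loam; next, water is held 1.5 to 3 cm over the soil; then compound (50/50 acetone/water) is pipetted into it at about 0.0313 to 0.500 kg/ha; finally plants are rated visually 0-9 after three to four weeks.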

The test system of series [3] is ORYSAT (Rice, Tebonnet). The series can be described thus: Rice tolerance to post-transplant applications, flooded paddy conditions (Table III). Format: in vivo, Oryza sativa, (L.) Tebonnet. To be noted: in vivo. On the procedure:
Results of herbicide evaluation are expressed on a rating scale (0-9). The scale is based upon a visual observation of plant stand, vigor, malformation, size, chlorosis and overall plant appearance as compared with a control.
The tolerance of transplanted rice to post-transplanted herbicide applications is determined as follows: two ten-day-old rice seedlings (cv. Tebonnet) are transplanted into silt loam soil in 32 oz. plastic containers with a diameter of 10.5 cm and no drainage holes. After transplanting, the containers are flooded and the water level is maintained at 1.5 to 3 cm above the soil surface. Three days after transplanting, the flooded soil surface of the containers is treated with the selected aqueous/acetone 50/50 v/v mixture containing the test compounds to provide the equivalent of about 0.0313 to 0.500 kg/ha of active ingredient. The treated containers are placed on greenhouse benches, watered such that the water level is maintained as stated above, and cared for in accordance with conventional greenhouse procedures. Three to four weeks after treatment, the test is terminated and each container is examined and herbicidal effect rated according to the rating system provided in Example 37. The compounds evaluated are reported by compound number given in Example 37.
Plant species employed in this example are reported by header abbreviation, common name and scientific name.

The next series relates to CYPSE (Flatsedge). The series can be described thus: Preemergence weed control under flooded paddy conditions. The format is in vivo, Cyperus serotinus. As to conditions: rated 3-4 weeks after treatment. In outline:
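Seeds or propagules sown in top 0.5 cm of silt loam soil, flooded 1.5 to 3 cm above surface throughout. Compound in 50/50 v/v aqueous/acetone pipetted into flood water at about 0.0313 to 0.500 kg/ha. Visual 0-9 rating versus control after three to four weeks in greenhouse.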

Another series has as its system ECHCG (Barnyardgrass). Briefly: Postemergence herbicidal evaluation. To be noted: postemergence. The format is in vivo, Echinochloa crus-galli. In outline:
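Each compound, dispersed in an acetone/water mix (50/50) carrying 0.5% TWEEN 20, is nozzle-sprayed at 40 psi on approximately two-week-old seedlings at about 0.0156–0.500 kg/ha. Plants are assessed 4–5 weeks afterward on a 0–9 scale relative to control; duplicate tests are averaged.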

For series [4], the system named is ORYSAT (Rice, Tebonnet). The series can be described thus: Preemergence herbicidal evaluation. Format: in vivo, Oryza sativa, (L.) Tebonnet. As to conditions: rated 4-5 weeks after treatment. In outline: as §1
For another series, the system named is MOOVA (Monochoria). Briefly: Postemergence weed control under flooded paddy conditions. Format: in vivo, Monochoria vaginalis. To be noted: postemergence weeds, 3-4 weeks after treatment. In outline:
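Herbicidal effect is judged by eye on a 0–9 scale versus control, 3–4 weeks after dosing. Dosing is into flood water kept 1.5–3 cm over the soil, at about 0.0313–0.500 kg/ha in aqueous/acetone 50/50 v/v, on 3–5 cm weeds and 1.5–2.5-leaf rice seedlings.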

Where [5] appears, read: rate 0.1250 kg/ha, rating scale 0-9.
[6] abbreviates: rate 0.2500 kg/ha, rating scale 0-9.

With `CCOC(=O)CN1C(=O)C(C(=O)OC(C)(C)C)SC1=Nc1cc(-n2c(=O)cc(C(F)(F)F)n(C)c2=O)c(F)cc1Cl` (centres unmarked) [Compound 167, 5-Carboxy-2-{{2-chloro-5-[3,6-dihydro-3-methyl-2,6-dioxo-4-(trifluoromethyl)-1(2H)-pyrimidinyl]-4-fluorophenyl}imino}-4-oxo-3-thiazolidineacetic acid, 5-tert-butyl ethyl ester], the “Preemergence herbicidal rating CHEAL” value in series [1] (0.0156 kg/ha) was 7.0; in series [1] (0.0313 kg/ha), 7.0; in series [1] (0.0625 kg/ha), 9.0; in series [1] (0.1250 kg/ha), 9.0; in series [1] (0.2500 kg/ha), 9.0; in series [1] (0.5000 kg/ha) it was 9.0. The “herbicidal effect rating, ECHORC” value in series [2] (0.0313 kg/ha), in series [2] (0.0625 kg/ha), in series [2] (0.1250 kg/ha) and in series [2] (0.2500 kg/ha) was 9.0 in each case. Besides, the “herbicidal effect rating, ORYSAT (rice tolerance)” value in the series with ORYSAT (Rice, Tebonnet) [3] is 4.0. The “herbicidal effect rating, CYPSE” value is listed as 0.0 in the series on CYPSE (Flatsedge) (0.0313 kg/ha), 0.0 with CYPSE (Flatsedge) (0.0625 kg/ha), 3.0 in the series on CYPSE (Flatsedge) (0.1250 kg/ha) and 5.0 with CYPSE (Flatsedge) (0.2500 kg/ha). Further, the “Herbicidal rating ECHCG” value in the series with ECHCG (Barnyardgrass) (rate 0.0156 kg/ha), with ECHCG (Barnyardgrass) (rate 0.0313 kg/ha), in the series with ECHCG (Barnyardgrass) (rate 0.0625 kg/ha) and with ECHCG (Barnyardgrass) (rate 0.1250 kg/ha) was 3.0 throughout. Also, the “Preemergence herbicidal rating ORYSAT” value with ORYSAT (Rice, Tebonnet) [4] (0.0156 kg/ha) is on record as 0.0; in the series on ORYSAT (Rice, Tebonnet) [4] (0.0313 kg/ha), 0.0; with ORYSAT (Rice, Tebonnet) [4] (0.0625 kg/ha) it was 1.0; in the series on ORYSAT (Rice, Tebonnet) [4] (0.1250 kg/ha), 4.0; with ORYSAT (Rice, Tebonnet) [4] (0.2500 kg/ha), 5.0; in the series on ORYSAT (Rice, Tebonnet) [4] (0.5000 kg/ha) it was 6.0.

Consider `Cc1ccc(CN2C(=O)CSC2=Nc2cc(-n3c(=O)cc(C(F)(F)F)n(C)c3=O)c(F)cc2Cl)cc1Cl` [Compound 149, 3-{4-Chloro-5-{[3-(3-chloro-4-methylbenzyl)-4-oxo-2-thiazolidinylidene]amino}-2-fluorophenyl}-1-methyl-6-(trifluoromethyl)-2,4(1H,3H)-pyrimidinedione], for which the figures for the “Preemergence herbicidal rating CHEAL” value in series [1] (setting [5]) and in series [1] (setting [6]) were 3.0 and 9.0, respectively. In addition, the “herbicidal effect rating, ECHORC” value in series [2] (0.0313 kg/ha) stood at 2.0; in series [2] (0.0625 kg/ha), 3.0; in series [2] (0.1250 kg/ha), 6.0; in series [2] (0.2500 kg/ha), 7.0. Moreover, in the series with ORYSAT (Rice, Tebonnet) [3], the “herbicidal effect rating, ORYSAT (rice tolerance)” value came out at 0.0. Further, the “herbicidal effect rating, CYPSE” value in the series with CYPSE (Flatsedge) (0.0313 kg/ha), with CYPSE (Flatsedge) (0.0625 kg/ha), in the series on CYPSE (Flatsedge) (0.1250 kg/ha) and in the series on CYPSE (Flatsedge) (0.2500 kg/ha) was 0.0 throughout. The “Herbicidal rating ECHCG” value with ECHCG (Barnyardgrass) (rate 0.0156 kg/ha), in the series with ECHCG (Barnyardgrass) (rate 0.0313 kg/ha) and in the series on ECHCG (Barnyardgrass) (rate 0.0625 kg/ha) was 0.0 each time. In addition, the “Preemergence herbicidal rating ORYSAT” value with ORYSAT (Rice, Tebonnet) [4] (setting [5]) came to 2.0; with ORYSAT (Rice, Tebonnet) [4] (setting [6]), 2.0.

In the case of `CCOC(=O)CN1C(=O)CO/C1=N/c1cc(-n2c(=O)cc(C(F)(F)F)n(C)c2=O)c(F)cc1Cl` [Compound 22, Ethyl 2-{{2-chloro-5-[3,6-dihydro-3-methyl-2,6-dioxo-4-(trifluoromethyl)-1(2H)-pyrimidinyl]-4-fluorophenyl}imino}-4-oxo-3-oxazolidineacetate], the “CHEAL preemergence herbicidal rating” value in series [1] (rate 0.0156 kg/ha), in series [1] (rate 0.0313 kg/ha), in series [1] (rate 0.0625 kg/ha), in series [1] (rate 0.1250 kg/ha) and in series [1] (rate 0.2500 kg/ha) was 9.0 throughout. The results for the “Herbicidal rating ECHORC” value in series [2] (0.1160 kg/ha), in series [2] (0.2310 kg/ha) and in series [2] (0.4630 kg/ha) were 6.0, 9.0 and 9.0, respectively. The “Herbicidal rating MOOVA” value in the series on MOOVA (Monochoria) (rate 0.1160 kg/ha), in the series on MOOVA (Monochoria) (rate 0.2310 kg/ha) and in the series with MOOVA (Monochoria) (rate 0.4630 kg/ha) was 9.0 in each case. Moreover, the “Herbicidal rating CYPSE” value in the series on CYPSE (Flatsedge) (0.1160 kg/ha), with CYPSE (Flatsedge) (0.2310 kg/ha) and in the series with CYPSE (Flatsedge) (0.4630 kg/ha) was 4.0 throughout. For the same compound, the ECHCG herbicidal rating is listed as 2.0 with ECHCG (Barnyardgrass) (rate 0.0158 kg/ha), 2.0 in the series with ECHCG (Barnyardgrass) (rate 0.0315 kg/ha) and 1.0 in the series on ECHCG (Barnyardgrass) (rate 0.0630 kg/ha). Also, the “ORYSAT preemergence herbicidal rating” value in the series on ORYSAT (Rice, Tebonnet) [4] (rate 0.0156 kg/ha) is 0.0; in the series with ORYSAT (Rice, Tebonnet) [4] (rate 0.0313 kg/ha), 0.0; with ORYSAT (Rice, Tebonnet) [4] (rate 0.0625 kg/ha) it was 0.0; in the series on ORYSAT (Rice, Tebonnet) [4] (rate 0.1250 kg/ha), 5.0; with ORYSAT (Rice, Tebonnet) [4] (rate 0.2500 kg/ha) it was 8.0.

On to `CCOC(=O)CN1C(=O)C2(CC2)SC1=Nc1cc(-n2c(=O)cc(C(F)(F)F)n(C)c2=O)c(F)cc1Cl` [Compound 15, Ethyl 5-{{2-chloro-5-[3,6-dihydro-3-methyl-2,6-dioxo-4-(trifluoromethyl)-1(2H)-pyrimidinyl]-4-fluorophenyl}imino}-7-oxo-4-thia-6-azaspiro[2.4]-heptane-6-acetate], for which the “CHEAL preemergence herbicidal rating” value in series [1] (rate 0.0156 kg/ha) worked out at 6.5; in series [1] (rate 0.0313 kg/ha), 9.0; in series [1] (rate 0.0625 kg/ha), 9.0; in series [1] (rate 0.1250 kg/ha) it was 9.0; in series [1] (rate 0.2500 kg/ha), 9.0. Moreover, the “Herbicidal rating ECHORC” value in series [2] (0.0313 kg/ha) was 6.0; in series [2] (0.0625 kg/ha), 9.0; in series [2] (0.1250 kg/ha), 9.0; in series [2] (0.2500 kg/ha) it was 9.0. The “Herbicidal rating MOOVA” value with MOOVA (Monochoria) (rate 0.0313 kg/ha), in the series with MOOVA (Monochoria) (rate 0.0625 kg/ha), in the series with MOOVA (Monochoria) (rate 0.1250 kg/ha) and with MOOVA (Monochoria) (rate 0.2500 kg/ha) was 9.0 each time. Moreover, the “Herbicidal rating CYPSE” value with CYPSE (Flatsedge) (0.0313 kg/ha), in the series on CYPSE (Flatsedge) (0.0625 kg/ha), in the series on CYPSE (Flatsedge) (0.1250 kg/ha) and in the series on CYPSE (Flatsedge) (0.2500 kg/ha) was 0.0 throughout. The ECHCG herbicidal rating amounted to 0.0 in the series on ECHCG (Barnyardgrass) (rate 0.0156 kg/ha), 0.0 in the series on ECHCG (Barnyardgrass) (rate 0.0313 kg/ha), 3.0 in the series with ECHCG (Barnyardgrass) (rate 0.0625 kg/ha) and 9.0 in the series on ECHCG (Barnyardgrass) (rate 0.1250 kg/ha). The “ORYSAT preemergence herbicidal rating” value in the series with ORYSAT (Rice, Tebonnet) [4] (rate 0.0156 kg/ha) stood at 0.0; in the series with ORYSAT (Rice, Tebonnet) [4] (rate 0.0313 kg/ha), 0.0; with ORYSAT (Rice, Tebonnet) [4] (rate 0.0625 kg/ha) it was 0.5; with ORYSAT (Rice, Tebonnet) [4] (rate 0.1250 kg/ha), 1.0; in the series with ORYSAT (Rice, Tebonnet) [4] (rate 0.2500 kg/ha), 1.5.
